# Results from US12663425B2, “Delta-2-tubulin as a biomarker and therapeutic target for peripheral neuropathy” (THE TRUSTEES OF COLUMBIA UNIVERSITY IN THE CITY OF NEW YORK, priority 2017, dated 2026).
# Assays:
# [1] = test system: delta-2-tubulin; assay: Delta-2-tubulin levels in cultured neurons (western blot, immunofluorescence); type: cell-based; conditions: for delta-2-tubulin expression: cultured hippocampal and DRG neurons (FIG. 6)
# Procedure: FIG. 6. Bortezomib induces delta-2-tubulin in DRG neurons as shown by western blot analysis of delta-2-tubulin levels from whole cell lysates of adult DRG neurons treated with Bortezomib and immunofluorescence of delta-2-tubulin in cultured DRG neurons treated with Bortezomib.
# (§1) FIG. 7A-7D. Bortezomib induces delta-2-tubulin at the onset of axonal degeneration. (A) Representative immunofluorescence of D2 and βIII-tub staining in DRG neurons treated with 100 nM of Bortezomib for the indicated times. Bar, 50 μm. (B) Ratio analysis of D2/βIII-tubulin levels measured by immunofluorescence of fixed cells treated as in A. **, p≤0.01, ****, p≤0.0001 by t-test (unpaired, two-tailed). […] Data are mean values±SEM from 3 experiments. (D) Number of retraction bulbs per field in DRG neurons treated with 100 nM of Bortezomib for the indicated times. **, p≤0.01.
# FIG. 12. (A) Immunoblot of D2 levels from whole cell lysates of adult DRG neurons (14 DIV) treated with increasing doses of Bortezomib for the indicated times. (B) IB of D2 levels in the MT pellet (P) and soluble tubulin (S) fractions isolated from adult DRG neurons (8 DIV) treated with 100 nM of Bortezomib for the indicated times.
# (§2) Peripheral neurons from patients suffering from CIPN were analyzed for delta-2-tubulin expression. […] In addition.
# [2] = test system: DRG neurons; assay: Axonal degeneration (degeneration index) in cultured DRG neurons; type: cell-based; conditions: DRG neurons treated with 100 nM for the indicated times (FIG. 7C)
# Procedure: as §1
# FIG. 9A-9E. Delta-2-tubulin accumulation is sufficient to drive axonopathy. (A) Schematic of the enzymes involved in D2 generation. (B) Immunoblot of tubulin tyrosine ligase (TTL), D2 and tyrosinated (TYR) tubulin levels in adult DRG neurons (14 DIV) silenced of TTL expression at 7 DIV. (C) Representative immunofluorescence images of DRG neurons as in B. (D) Axonal degeneration and number of retraction bulbs per field in DRG neurons treated as in B. (E) Axonal degeneration in DRG neurons that overexpress D2-(PVLX-EGFP-D2Tub) or WT-tubulin (PVLX-EGFP-Tub). Data are mean values±SEM from 3 experiments. ***, p≤0.001; **, p≤0.01, *p≤0.05 by t-test (unpaired, two-tailed). Bar, […].
# FIG. 14A-14D. […]
# Peripheral neurons from patients suffering from CIPN were analyzed for delta-2-tubulin expression. […]
# [3] = test system: DRG neurons; assay: EGFP-EB3 analysis of microtubule dynamics in DRG neurons; type: cell-based; conditions: DRG neurons 7 DIV, 100 nM, prior to delta-2-tubulin induction (FIG. 8)
# Procedure: FIG. 8. Bortezomib induces MT stability without affecting MT dynamics prior to D2 induction. EGFP-EB3 time course analysis of MT dynamics parameters in DRG neurons (7 days in vitro (DIV)) treated with 100 nM Bortezomib for the indicated times. Data were pulled from up to 300 comets and 12-15 neurites for each group and analyzed by one-way ANOVA, multiple comparison. (NS, non-significant).
# (§3) Microtubule dynamics were analyzed in DRG neurons following bortezomib treatment. […] TTL binds αβ-tubulin dimer and catalyzes the post-translational addition of a tyrosine to the C-terminal end of detyrosinated α-tubulin. Song et al., J. of Bio. Chem. 290(23):14765-14775 (2015).
# [4] = test system: delta-2-tubulin; assay: Quantitative immunofluorescence of tubulin post-translational modifications in DRG and sural nerve of treated rats; type: in vivo, female Wistar rats
# Procedure: FIG. 2. Immunofluorescence analysis of selected α-tubulin post-translational modifications in neuronal tissue from chronically treated rats. Relative tubulin post-translational modifications levels measured by quantitative immunofluorescence in randomly selected dorsal root ganglion cell bodies (DRG) and sural nerve (SN) from rats (4 per group) treated with chronic (0.2 mg/kg, 3× week for 8 weeks) doses of Bortezomib. Data are mean values±SEM. ****, p≤0.0001; ***, p≤0.001; **, p≤0.01; *, p≤0.05 by ANOVA (in red,) or unpaired, two-tailed t-test (in black).
# FIG. 3A-3C. […] (A) Representative immunofluorescence staining of DRG isolated from rats acutely treated with Bortezomib. (B) Relative tubulin post-translational modifications levels measured by quantitative immunofluorescence in randomly selected DRG and SN from rats (4 per group) treated with acute (i.v. 0.2 mg/kg; 24 hr) doses of Bortezomib. Data are mean values±SEM, ****, p≤0.0001; ***, p≤0.001; **, p≤0.01; *, p≤0.05 by ANOVA (A in red,) or unpaired, two-tailed t-test (A in black). (C) Schematic of the enzymes involved in D2 generation.
# FIG. 13A-13E. […] (A) Immunofluorescence staining of Peripherin (smaller unmyelinated C-fibers) or (B) NF200 (large myelinated A-β fibers)(C) TrkC (proprioceptive)(D) TrkA (nociceptive) in DRG L4-L5 dissected from rats treated with Bortezomib for 24 hr. (E) Correlation between peripherin, NF200, TrkC, TrkA and D2 intensity values in randomly selected DRG cell bodies was calculated by using Pearson coefficient (r). Scale bar, 50 μm.
# To determine the effects of bortezomib on the post-translation modifications of tubulin, female Wistar rats were treated with single or multiple administrations pf bortezomib (5 rats for each treatment). Acute treatment included a single intravenous administration of bortezomib at a concentration of 0.2 mg/kg. Chronically treated rats were treated with bortezomib for a total of 8 weeks, with administration of bortezomib three times per week at a concentration of 0.2 mg/kg.
# To determine the effect of bortezomib on tubulin expression, DRGs were analyzed for delta-2-tubulin expression. […] Further analysis of other unrelated chemotherapy-induced peripheral neuropathy (CIPN) drugs was performed to determine their effect on delta-2-tubulin expression levels. […] Additional experiments were performed to determine whether DRGs with different sensory modalities and diameters are preferentially affected by bortezomib treatment.
# [5] = Dynamic test, plantar test and electrophysiological tests in rats chronically treated with bortezomib; type: in vivo, female Wistar rats; conditions: chronic: 0.2 mg/kg, three times per week, 8 weeks
# Procedure: FIG. 1A-1D. Chronic doses of bortezomib affect animal behavior and nerve function. (A) Hind-paw withdrawal response to mechanical stimulus (10-50 g). (B) Plantar withdrawal latency response to heat source (infra-red light). Dynamic and plantar tests were performed before (baseline value), after 4-week and at the end point of treatment with Bortezomib. Data are expressed as mean values±SD, n animals=12. (C, D) Caudal and digital nerve conduction velocity (NCV) and amplitude measured in rats treated chronically with Bortezomib. n=8-10 per group; *p<0.05 compared to control.
# To determine the effects of bortezomib on the post-translation modifications of tubulin, female Wistar rats were treated with single or multiple administrations pf bortezomib (5 rats for each treatment). Acute treatment included a single intravenous administration of bortezomib at a concentration of 0.2 mg/kg. Chronically treated rats were treated with bortezomib for a total of 8 weeks, with administration of bortezomib three times per week at a concentration of 0.2 mg/kg. […] Certain post-translation modifications of α-tubulin, e.g., acetylation, are reduced in dorsal root ganglions neurons (DRGs) and sural nerves (SNs) from rats chronically treated with bortezomib (FIG. 2) and in rats acutely treated with bortezomib (FIG. 3).
# [6] = test system: tubulin tyrosine ligase (TTL); assay: Immunoblot of tubulin tyrosine ligase (TTL) and D2 levels in adult DRG neurons; type: cell-based; conditions: adult DRG neurons 14 DIV, 100 nM (FIG. 11)
# Procedure: FIG. 11. Immunoblot of tubulin tyrosine ligase (TTL) and D2 levels in adult DRG neurons (14 DIV) treated with 100 nM Bortezomib.
# as §3
# [7] = test system: DRG neurons; assay: Mitochondrial motility in DRG neurons (mito-DsRed kymographs); type: cell-based; conditions: 100 nM for 24 hr (FIG. 15D)
# Procedure: FIG. 15A-15F. D2 accumulation is necessary and sufficient to affect mitochondria motility. (A) Representative kymographs of mitochondrial motility in DRG neurons (7 DIV) infected for 4 days with PVLX-EGFP-D2- or WT-Tubulin lentivirus prior to 72 hr infection with mito-DsRed lentivirus. (B) Quantification of the percentage of moving mitochondria as in A. Videos (10 s/frame for 30 min). (C, F) Percentage of different mitochondria movement states, Dynamic Pause (DP), Stationary (STA), Anterograde Running (AR), Retrograde Running (RR) (1 s/frame for 3 min, C), (10 s/frame for 30 min, F). (D) Representative kymographs of mitochondrial motility in DRG neurons (7 DIV) infected for 4 days with ShCCP1 or shControl lentivirus prior 72 hr infection with mito-DsRed lentivirus followed by Bortezomib treatment (100 nM for 24 hr). (E) Quantification of the percentage of moving mitochondria as in D. Videos (10 s/frame for 30 min). […]
# To determine the effect bortezomib and delta-2 tubulin accumulation have on mitochondrial motility, DRG neurons were transduced with lentivirus to express wild-type tubulin or delta-2 tubulin. […] Expression of delta-2 tubulin affected every state of mitochondrial movement analyzed except for the stationary state (STA) (FIG. 15C). The effect of CCP1 knockdown on mitochondrial movement in the presence of bortezomib was also analyzed.
# [8] = test system: delta-2-tubulin; assay: Delta-2-tubulin in sural nerve biopsy of CIPN patients (immunofluorescence, immunoblot); type: in vivo; conditions: CIPN patients (FIG. 5)
# Source text: FIG. 5A-5C. Bortezomib induces delta-2-tubulin in CIPN patients. (A) Representative immunofluorescence staining of SN isolated from a patient affected by CIPN. (B) Ratio analysis of D2/βIII-tubulin levels measured by immunofluorescence of fixed tissue from one SN biopsy. Data are mean values from 3 sections±SEM, ****, p<0.0001 by t-test (unpaired, two-tailed). (C) Immunoblot of D2 levels in whole cell lysates from one SN biopsy. Tyr, tyrosinated tubulin.
# as §2
SMILES,"delta-2-tubulin induction relative to axonal degeneration (degeneration index) ([1]; DRG neurons, 100 nM, time course (FIG. 7))",delta-2-tubulin expression [1],axonopathy [2],"microtubule dynamics (rescue/nucleation frequency, catastrophe frequency, comet density, growth rate) [3]",delta-2-tubulin in proprioceptive and nociceptive DRG neurons ([4]; DRG L4-L5 of rats treated for 24 hr (FIG. 13)),"delta-2-tubulin in DRG cell bodies, compared to βIII-tubulin and control ([4]; acute treatment, single i.v. 0.2 mg/kg, 24 hr (FIG. 3))","delta-2-tubulin in DRG cell bodies, compared to βIII-tubulin and control ([4]; chronic treatment, 0.2 mg/kg 3x week for 8 weeks (FIG. 2))","post-translation modifications of α-tubulin, e.g., acetylation, in DRGs and SNs ([4]; rats acutely treated, single i.v. 0.2 mg/kg, 24 hr (FIG. 3))","post-translation modifications of α-tubulin, e.g., acetylation, in DRGs and SNs ([4]; rats chronically treated, 0.2 mg/kg 3x week for 8 weeks (FIG. 2))","animal behavior and nerve function (dynamic test, plantar test, electrophysiological tests) [5]","TTL expression, western blot [6]","delta-2-tubulin, western blot [6]",movement of mitochondria [7],"delta-2-tubulin expression in peripheral neurons, e.g., sural nerve [8]","delta-2-tubulin in DRG neurons compared to control ([4]; unrelated CIPN drugs, acute (FIG. 4))"
CC(C)C[C@H](NC(=O)[C@H](Cc1ccccc1)NC(=O)c1cnccn1)B(O)O [bortezomib],induced delta-2-tubulin at the onset of axonal degeneration,increase in delta-2-tubulin expression,Time dependent increase of axonopathy,does not affect microtubule dynamics,accumulate delta-2-tubulin,increased,increased,reduced,reduced,affected animal behavior and nerve function,reduction of TTL expression,accumulation of delta-2-tubulin,greatly affected the movement of mitochondria,induced delta-2-tubulin expression,
CC(=O)O[C@H]1C(=O)[C@@]2(C)[C@H]([C@H](OC(=O)c3ccccc3)[C@]3(O)C[C@H](OC(=O)[C@H](O)[C@@H](NC(=O)c4ccccc4)c4ccccc4)C(C)=C1C3(C)C)[C@]1(OC(C)=O)CO[C@@H]1C[C@@H]2O [paclitaxel],,increase in delta-2-tubulin expression,,,,,,,,,,,,,acutely accumulated delta-2-tubulin
